Data taken from patent publication US5484776A, “Process for the production of stable liquid form of beta-blocker-containing medicaments with controlled release of the active constituent for oral administration” (Synepos Aktiengesellschaft, priority 1993, dated 1996).

Experiment: Drop size / reproducibility of drops of oral solutions with xanthan gum
Format: physicochemical
Conditions: metoprolol 200 mg/ml, sotalol 160 mg/ml, atenolol 50 mg/ml, n = 10
Excerpt: It was found also in this respect that when the concentration of Xanthan Gum was varied in the solution, the scattering of the exact number of drops was higher at both below and above 0.1% than at about this particular concentration (see Table II.).
Using a standard medicine dropper, 10 drops of the medicinal solutions prepared according to Examples 1-11 contain one usual dose of the beta-blocker in a stable form and ensuring reproducible dosage with the required accuracy, the difference by one drop corresponding to a deviation of less than 10%.
Drop size values of different solutions of β-blockers
and xanthan gum as auxiliary material (n = 10,

Average Mass of 10 Drops (0.001% xanthan gum) | Average Mass of 10 Drops (0.01% xanthan gum) | Average Mass of 10 Drops (0.1% xanthan gum) | Average Mass of 10 Drops (0.25% xanthan gum) | Average Mass of 10 Drops (0.5% xanthan gum) | SMILES
0.4038 g | 0.4094 g | 0.4395 g | 0.4604 g | 0.4456 g | CC(C)NCC(O)COc1ccc(CC(N)=O)cc1 (stereo not drawn) [Atenolol, atenolol]
0.3490 g | 0.3446 g | 0.3301 g | 0.3497 g | 0.3559 g | COCCc1ccc(OCC(O)CNC(C)C)cc1 (stereo not drawn) [Metoprolol, metoprolol]
0.3805 g | 0.4067 g | 0.4171 g | 0.4345 g | 0.4052 g | CC(C)NCC(O)c1ccc(NS(C)(=O)=O)cc1 (stereo not drawn) [Sotalol, sotalol]
